Holding throughout (assay type): in vivo, mouse
In experiment [1] the test system is procedural learning (nose poke responses). The experiment in a line: 9-hole operant boxes, FR1 nose poke, zQ175 mice with RB5. Conditions: for FR1 nose poke, AUC analysis: 20 mg/kg i.p. 1 h before session; for Nose poke responses (FR1): 9 days of treatment, 20 mg/kg i.p. As for the experimental part: Operant testing was conducted in 16 9‐hole operant boxes as previously described (Yhnell et al, [2016a]). Each operant box contains a horizontal array of nine holes with infrared beams localized to the front of each hole to detect nose pokes. A peristaltic pump delivers liquid reinforcement (strawberry milk) into a magazine at the front of the box.
A week before starting the training, mice underwent water restriction for 18 h/day and were kept under this regimen throughout the experimental procedures. Mice were taught to nose poke on a simple fixed ratio (FR1) schedule of reinforcement: to obtain reward, mice were required to respond to a stimulus light in the central hole via a single nose poke. zQ175 mice were trained daily on this program for 20‐min sessions for 10 days (training phase). Once trained, animals were subdivided into four groups and injected with RB5 or scramble (20 mg/kg, i.p.) peptides 1 h before being tested on the FR1 schedule for the other 9 days. At the end of the behavioral tests, mice were perfused with 4% PFA, and brains were processed for IHC or IF.

Experiment [2] concerns 3-NP-induced striatal apoptosis. The experiment in a line: TUNEL assay in striatum, 3-NP model with RB5. Conditions: 7 days, individual mice. As for the experimental part: The detection of apoptosis on cultured cells or tissue sections was carried out using the DeadEnd™ Colorimetric TUNEL System kit (Promega). Cultured cells were fixed in 4% PFA for 15 min at room temperature before undergoing TUNEL staining. Tissue sections were obtained from mice perfused with 4% PFA. Brains were subsequently stored in 30% sucrose overnight and cut into 35 μm‐thick slices using a freezing microtome. Slices were mounted on slides and processed for TUNEL staining. TUNEL was performed following the manufacturer's instructions. Briefly, slides were immersed in PBS for 5 min RT and then incubated for 25 min in a […] Proteinase K solution. Then, the slides were rinsed in 1× PBS, re‐fixed in 4% PFA for 5 min, and rinsed twice with 1× PBS. […] of equilibration buffer were added to each tissue section for 5–10 min followed by 1 h of incubation at 37°C in a humidified chamber with […] of rTdT reaction mix. After that, slides were immersed in 2× SSC solution in a Coplin jar for 15 min and washed twice in PBS 1× for 5 min. The endogenous peroxidase activity was blocked with 0.3% hydrogen peroxide for 5 min. The slides were rinsed twice in 1× PBS for 5 min and incubated for 30 min with Streptavidin HRP solution and finally DAB substrate was added to react for 10 min. A light microscope was used to acquire four representative fields per slide from cultured cells and 3–4 representative slices per mouse from all experimental groups. The number of TUNEL positive cells was counted using ImageJ software.
3‐NP (3‐Nitropropionic acid) (N5636, Sigma) was dissolved in distilled water to a concentration of 50 mg/ml (pH 7.4) and passed through a 0.2‐μm filter and kept at −80°C until use. The 3‐NP solution was administered i.p. once daily at a dose of 50 mg/kg either for 21 consecutive days in the LV‐injected mice or for 7 days in combination with RB5.

The next experiment deals with MEK-1 phosphorylation. Description: Striatal phospho-MEK-1 immunohistochemistry 1 h after single injection. The following applies: single injection 20 mg/kg i.p., individual mice. As for the experimental part:
Immunohistochemistry was performed as described in Papale et al ([2016]). Briefly, 1 h after blocking in 5% normal goat serum and 0.1% Triton X‐100 solution, free‐floating sections were incubated overnight at 4°C with one of the following primary antibodies: anti‐phospho‐p44/42 MAP kinase (Thr202/Tyr204) (1:200, Cell Signaling Technology #9101), anti‐phospho–Elk‐1 (Ser383) (1:100, Cell Signaling #9181), anti‐phospho‐Kv4.2 (Thr607)‐R (1:100, Santa Cruz sc22254‐R), anti‐phospho‐MSK‐1 (1:100 Cell Signaling Technology #9595), anti‐phospho‐MEK1/2 (Ser218/222) (1:100, sc‐7995 Santa Cruz Biotechnology), c‐Fos (1:100, sc‐52 Santa Cruz Biotechnology), tyrosine Hydroxylase (monoclonal 1:1,000, Sigma Aldrich, Italy) and anti‐DARPP‐32 (H3) (1:100, Santa Cruz Biotechnology, #sc‐271111) overnight at 4°C. […]
For in vivo immunohistochemistry experiments, images were acquired from the dorsal striatum using a Leica DM IRB microscope under a 20× objective. The number of p‐ERK, p‐MSK‐1, p‐ELK, p‐MEK‐1, p‐VG K+, c‐Fos, and DARPP‐32 positive cells was counted in 2–3 consecutive sections per mouse, bilaterally and averaged across the sections using the ImageJ software by a blind investigator to the condition. Estimation of nigral cell loss was assessed by quantifying the number of TH‐immunopositive neurons of the SNc in 360 μm‐spaced sections for each animal.

Another experiment deals with contextual fear memory. Description: Contextual fear conditioning, Tg2576 and WT mice. Also on record: unit not given here. The following applies: 7 months, 20 mg/kg i.p. 1 h before CFC, test 24 h later, individual mice. As for the experimental part:
Tg2576 mice were administered with RB5 or Scramble (20 mg/kg i.p.) for either 7 days, for IHC analysis, or with a single injection (20 mg/kg i.p.), for behavioral analysis.
7‐month‐old Tg2576 mice and WT mice were treated with either Scramble or RB5 (20 mg/kg, i.p.) 1 h before CFC. Mice were individually placed in the conditioning chamber for 120 s of free exploration followed by five foot‐shocks (0.7 mA, 2‐s duration, separated by 60‐s intervals) delivered through the grid floor. Context Fear Memory was assessed 24 h later by returning mice for 5 min to the conditioning chamber and not delivering a foot shock.
For all protocols, freezing behavior served as a measure of conditioned fear to the context during the conditioning and retrieval tests.

Setting [3] is: peptide 20 mg/kg i.p. twice a day plus 3-NP 50 mg/kg i.p. once a day.
Where [4] appears, read: peptide 20 mg/kg i.p. twice a day plus saline.

Values joined by “and” are separate entries in the source; they are usually repeats but may differ in a detail not shown here. Equal entries are not always repeated.

As to “SCR: ineffective Scramble version of RB5 containing a TAT sequence (GRKKRRQRRRPPRVGPGVPEGVGVAVFGVKEPGQTGDVGPVGE) [reference compound]”, the “FR1 nose poke, AUC analysis” value was 426 in experiment [1] (WT females, treatment day 1); 494 in experiment [1] (WT females, treatment day 2); 529 in experiment [1] (WT females, treatment day 3); 551 in experiment [1] (WT females, treatment day 4); 606 in experiment [1] (WT females, treatment day 5); 632 in experiment [1] (WT females, treatment day 6). The “FR1 nose poke, AUC analysis” value is 637 in experiment [1] (WT females, treatment day 7); 652 in experiment [1] (WT females, treatment day 8); 625 in experiment [1] (WT females, treatment day 9); 79.44 in experiment [1] (zQ175 females, treatment day 1); 88.63 in experiment [1] (zQ175 females, treatment day 2); 81.25 in experiment [1] (zQ175 females, treatment day 3). Also, the “FR1 nose poke, AUC analysis” value in experiment [1] (zQ175 females, treatment day 4) amounted to 82.51; in experiment [1] (zQ175 females, treatment day 5) it was 86.56; in experiment [1] (zQ175 females, treatment day 6), 92.15; in experiment [1] (zQ175 females, treatment day 7) it was 90.83; in experiment [1] (zQ175 females, treatment day 8), 92.99; in experiment [1] (zQ175 females, treatment day 9) it was 83.24. For the same substance, the “TUNEL positive cells in striatum” value in experiment [2] (setting [3]) is 360.976 and 175.61 and 179.533 and 215.44 and 403.95 and 136.585 and 370.732; in experiment [2] (setting [4]), 87.8049 and 58.5366 and 107.72 and 89.7666 and 104.728 and 165.854. Besides, the “p-MEK-1 positive cells in striatum” value in the experiment on MEK-1 phosphorylation is 385.714 and 492.857 and 471.429 and 371.429 and 478.571 and 335.714 and 407.143 and 328.571 and 342.857 and 257.143 and 442.857 and 264.286 and 542.857. For the same substance, the “Freezing behavior, contextual fear memory” value with contextual fear memory (Tg2576 mice) was 28.67 and 36 and 36.67 and 25.33 and 43.67 and 29.67 and 28; in the experiment with contextual fear memory (WT mice), 96.67 and 87.67 and 96.33 and 88.67 and 64 and 57.67 and 82.67.

In the case of “GRKKRRQRRRPPQGGGGGEPRRTEGVGPGVPGEVEMVKGQPFDV [RB5, six D-amino acids, acetylated N-terminus]”, the “Nose poke responses (FR1)” value in experiment [1] (WT and zQ175 females) is given as “significantly enhanced responses”; in experiment [1] (zQ175 males), “did not alter responses”. For the same substance, the “FR1 nose poke, AUC analysis” value in experiment [1] (WT females, treatment day 1) is given as 696.2; in experiment [1] (WT females, treatment day 2), 784.67; in experiment [1] (WT females, treatment day 3), 771.56; in experiment [1] (WT females, treatment day 4), 796.53; in experiment [1] (WT females, treatment day 5), 786.86; in experiment [1] (WT females, treatment day 6), 819.62. Further, the “FR1 nose poke, AUC analysis” value in experiment [1] (WT females, treatment day 7) is 786.91; in experiment [1] (WT females, treatment day 8) it was 844.4; in experiment [1] (WT females, treatment day 9), 832.09; in experiment [1] (zQ175 females, treatment day 1), 293.69; in experiment [1] (zQ175 females, treatment day 2), 300.15; in experiment [1] (zQ175 females, treatment day 3), 373.09. Besides, the “FR1 nose poke, AUC analysis” value worked out at 374.4 in experiment [1] (zQ175 females, treatment day 4); 384.76 in experiment [1] (zQ175 females, treatment day 5); 413.69 in experiment [1] (zQ175 females, treatment day 6); 454.91 in experiment [1] (zQ175 females, treatment day 7); 338.07 in experiment [1] (zQ175 females, treatment day 8); 338.07 in experiment [1] (zQ175 females, treatment day 9). For the same substance, the “TUNEL positive cells in striatum” value is “significantly reduced neuronal death and 87.8049 and 8.8692 and 39.0244 and 107.72 and 134.65 and 179.533 and 163.212 and 136.585 and 117.073” in experiment [2] (setting [3]); 29.2683 and 60.9756 and 89.7666 and 81.606 and 71.8133 and 143.627 and 134.65 and 43.3604 in experiment [2] (setting [4]). The “p-MEK-1 positive cells in striatum” value in the experiment on MEK-1 phosphorylation was “did not influence the phosphorylation and 335.714 and 385.714 and 421.429 and 400 and 314.286 and 271.429 and 307.143 and 464.286 and 371.429 and 428.571 and 392.857 and 285.714 and 500”. Also, the “Freezing behavior, contextual fear memory” value was “fully prevented the memory impairment and 56.33 and 63.67 and 67 and 57.33 and 84 and 76.33 and 95.67 and 82.67” with contextual fear memory (Tg2576 mice); 93.33 and 94.33 and 78 and 88.33 and 70.33 and 78.33 and 85 with contextual fear memory (WT mice).

The values are drawn from PMC10630888, “Nuclear ERK1/2 signaling potentiation enhances neuroprotection and cognition via Importinα1/KPNA2” (EMBO Molecular Medicine, 2023).
